Experimental findings from patent publication US9657013B2, “Inhibitors of hepatitis B virus covalently closed circular DNA formation and their method of use” (priority 2012, dated 2017) are described below.

A short description of series [1]: cytotoxicity assay (MTT, CC50). In kind it is cell-based. The note with it: human, HepDE19 cells. Here is the method:
(§1) Cell plates were then incubated with compound dilutions and controls as described above, and addition of 3-[4,5-dimethylthiazol-2-yl]-2,5-diphenyltetrazolium bromide (MTT, Sigma-Aldrich) was added to a final concentration of 0.5 mg/ml (Mosmann, T. 1983). Plates were again incubated at 37° C. for 4 hrs, after which 10% SDS/0.01N HCl was added to each well in a volume equal to the medium (100 μl), followed by overnight incubation. Absorbance was read in the Rainbow spectrophotometer (Tecan US Inc., Durham, N.C.) at 570 nm (reference wavelength of 630 nm), and analyzed with XLfit 4.0 as described above.

In another series the test system is HepDE19 cells. Kind of series: cytotoxicity assay (MTT, CC50). In kind it is cell-based. The protocol:
as §1

Usually CC50 stands for the concentration that lowers cell viability or growth by half. High values mean better tolerance by the cells, low ones harm at low concentration. On to `Cc1nc2cc(NC(=O)c3ccc(S(=O)(=O)N(C)Cc4ccccc4)cc3)ccc2s1` [CCC-0346, 4-(Benzyl-methyl-sulfamoyl)-N-(2-methyl-benzothiazol-5-yl)-benzamide], for which, in series [1], the midpoint of cytotoxicity, the CC50, lay at 3000 nM. `O=C(CN(c1cc(C(F)(F)F)ccc1Cl)S(=O)(=O)c1ccccc1)NCc1ccncc1` [CCC-0975, 2-[Benzenesulfonyl-(2-chloro-5-trifluoromethyl-phenyl)-amino]-N-pyridin-4-ylmethyl-acetamide] showed a 50% cytotoxic concentration (CC50) in the series on HepDE19 cells of over 50000 nM.
